The source of these data is patent US12304912B2, “Fused bicyclic RAF inhibitors and methods for use thereof” (Jazz Pharmaceuticals Ireland Limited, priority 2020, dated 2025).

The term microsomal CLint denotes a measure of how fast metabolising enzymes remove a compound, apart from limits set by blood flow.

Structures are written as SMILES.

The subject of data set [1] is RAF dimers in HCT-116 cells. Briefly: HCT-116 AlphaLISA SureFire pERK1/2 cellular assay (dimer). It is filed as cell-based. The note with it: Homo sapiens, HCT-116; HCT116 cells pre-dosed with 1 μM Encorafenib, 1 hr; read-out: pERK HCT116 dimer (1 hr) pIC50 (converted). In outline:
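HCT-116 (KRAS G13D) cells, 30,000/well, pretreated 1 h with 1 μM Encorafenib to induce RAF dimers, washed, then dosed 1 h at 37° C with compound (10-point, top 10 μM, 1/2 log steps) in growth medium. pERK1/2 (T202/Y204) measured by AlphaLISA SureFire; absolute IC50 versus DMSO control.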
On the technique in general: In Alpha technology, singlet oxygen from a donor bead excites a nearby acceptor bead.

Data set [2] can be described thus: Microsomal stability assay, human liver microsomes (HLM). The class given is in vitro ADME. The note with it: 0.5 mg/mL protein, 1 μM substrate. The procedure, abridged:
(§1)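 Half-life and CLint come from the ln(% remaining)–time slope, with remaining compound quantified by LC-MS/MS after ice-cold solvent quench of timed samples. Incubations used 1 μM test compound and 0.5 mg·mL^−1 human or mouse liver microsomal protein at 37° C.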
(In general: Microsomes from liver hold many membrane-bound enzymes, among them those of drug oxidation.)

The test system of data set [3] is BRAF monomers in A375 cells. Description: A375 AlphaLISA SureFire pERK1/2 cellular assay (monomer). It is filed as cell-based. The settings on record: Homo sapiens, A-375; A375 cells, 1 hr; read-out: pERK A375 (1 hr) pIC50 (converted). The procedure, abridged: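 BRAF^V600E A375 melanoma cells seeded at 30,000/well in DMEM with 10% FBS, dosed without medium exchange in a 10-point series from 10 μM at 1/2-log steps, 1 h at 37 °C. Phospho-ERK1/2 (Thr202/Tyr204) measured in lysates by AlphaLISA SureFire; absolute IC50 relative to DMSO control.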

The nature of data set [4]: Plasma protein binding assay, mouse plasma (mPPB). It is filed as in vitro ADME. The note with it: 5 μM, equilibrium dialysis 4 hours 37° C. The procedure, abridged:
(§2)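 Equilibrium dialysis of 5 μM compound in previously frozen human or mouse plasma against phosphate buffer, 4 h at 37 °C. Both chambers quantified by LC-MS/MS; % free = (1−((PC−PF)/PC))×100.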
For orientation: In equilibrium dialysis only unbound substance equilibrates across the membrane.

Data set [5] is described as follows: Plasma protein binding assay, human plasma (hPPB). The class given is in vitro ADME. The note with it: 5 μM, equilibrium dialysis 4 hours 37° C. The procedure, abridged:
as §2

Data set [6] in a line: Solubility (Sol), medium not stated. The class given is physicochemical. The settings on record: cells not marked (FESSIF).
Data set [7] in a line: Microsomal stability assay, mouse liver microsomes (MLM). The settings on record: 0.5 mg/mL protein, 1 μM substrate. It is filed as in vitro ADME. In outline: as §1

Turning to `O=C1CCc2c(Oc3ccc4c(c3)CC(c3nc(-c5cccc(F)c5)c[nH]3)CO4)ccnc2N1` (stereo not drawn) [Compound 15, 5-[3-[4-(3-fluorophenyl)-1H-imidazol-2-yl]chroman-6-yl]oxy-3,4-dihydro-1H-1,8-naphthyridin-2-one], the IC50 in data set [1] is 67.6 nM; in data set [3], 24 nM. Moreover, the microsomal CLint at 1 μM is 39.9 µL/min/mg in data set [2] and 33.9 µL/min/mg in data set [7]. The “mPPB (% free)” value in data set [4] was determined as 1.3 % free. For the same molecule, the “hPPB (% free)” value in data set [5] came out at 0.2 % free. For the same molecule, in data set [6], the Sol is less than 1.1 mg/L.
For the molecule `COc1cncc(-c2c[nH]c(C3COc4ccc(Oc5ccnc6c5CCC(=O)N6)cc4C3)n2)c1` (stereo not drawn) [Compound 17, 5-[3-[4-(5-methoxy-3-pyridyl)-1H-imidazol-2-yl]chroman-6-yl]oxy-3,4-dihydro-1H-1,8-naphthyridin-2-one], the results for the IC50 in data set [1] and in data set [3] were 347 nM and 933 nM, respectively. The values for the microsomal CLint at 1 μM in data set [2] and in data set [7] were 31.5 µL/min/mg and 16.5 µL/min/mg, respectively. Besides, the “mPPB (% free)” value in data set [4] is 2.4 % free. Also, the “hPPB (% free)” value in data set [5] was found to be 0.7 % free. The Sol in data set [6] is given as less than 1.2 mg/L.
Regarding `O=C1CCc2c(Oc3ccc4c(c3)CC(c3nc(-c5ccc(C(F)(F)F)cc5)c[nH]3)CO4)ccnc2N1` (stereo not drawn) [Compound 20, 5-[3-[4-[4-(trifluoromethyl)phenyl]-1H-imidazol-2-yl]chroman-6-yl]oxy-3,4-dihydro-1H-1,8-naphthyridin-2-one], the results for the IC50 in data set [1] and in data set [3] were 603 nM and 741 nM, respectively. The microsomal CLint at 1 μM in data set [2] was 16.9 µL/min/mg; in data set [7], 3 µL/min/mg. Further, the “mPPB (% free)” value in data set [4] is 0.1 % free. For the same molecule, the “hPPB (% free)” value in data set [5] is listed as 0.1 % free. This molecule also came in with a Sol in data set [6] of less than 1.3 mg/L.
Turning to `N#Cc1ccc(-c2c[nH]c(C3COc4ccc(Oc5ccnc6c5CCC(=O)N6)cc4C3)n2)cc1` (stereo not drawn) [Compound 21], the IC50 is 275 nM in data set [1] and 933 nM in data set [3]. For the same molecule, the microsomal CLint at 1 μM in data set [2] was 15.6 µL/min/mg; in data set [7], 23.2 µL/min/mg. In addition, the “mPPB (% free)” value in data set [4] amounted to 1.6 % free. Moreover, the “hPPB (% free)” value in data set [5] is 0.7 % free. In addition, in data set [6], the Sol is less than 1.2 mg/L.
With `O=C1CCc2c(Oc3ccc4c(c3)CC(c3nc5c(C(F)(F)F)cccc5[nH]3)CO4)ccnc2N1` (stereo not drawn) [Compound 27], the results for the IC50 in data set [1] and in data set [3] were 380 nM and 389 nM, respectively. Moreover, the microsomal CLint at 1 μM is 102 µL/min/mg in data set [2] and 148 µL/min/mg in data set [7]. For the same molecule, the “mPPB (% free)” value in data set [4] is less than 0.1 % free. For the same molecule, the “hPPB (% free)” value in data set [5] was less than 0.1 % free. In addition, the Sol in data set [6] was less than 1.2 mg/L.
`Cc1cc(C(F)(F)F)cc2nc(C3COc4ccc(Oc5ccnc6c5CCC(=O)N6)cc4C3)[nH]c12` (stereo not drawn) [Compound 31]: the IC50 in data set [1] was 871 nM; in data set [3], 126 nM. The microsomal CLint at 1 μM turned out to be 34.6 µL/min/mg in data set [2] and 26 µL/min/mg in data set [7]. The “mPPB (% free)” value in data set [4] turned out to be 0.2 % free. Also, the “hPPB (% free)” value in data set [5] is reported as less than 0.1 % free. This molecule also had a Sol in data set [6] of less than 1.2 mg/L.
With `CN(C)Cc1cc(C(F)(F)F)cc2nc(C3COc4ccc(Oc5ccnc6c5CCC(=O)N6)cc4C3)[nH]c12` (stereo not drawn) [Compound 33], the IC50 was 661 nM in data set [1] and 380 nM in data set [3]. In addition, the microsomal CLint at 1 μM in data set [2] stood at 77.3 µL/min/mg; in data set [7], 37 µL/min/mg. Further, the “mPPB (% free)” value in data set [4] came to 3.1 % free. Further, the “hPPB (% free)” value in data set [5] turned out to be 2 % free. The Sol in data set [6] is listed as 7 mg/L.
For the molecule `O=C1CCc2c(Oc3ccc4c(c3)CN(C(=O)NCc3ccccc3)CC4)ccnc2N1` [Compound 48], the figures for the IC50 in data set [1] and in data set [3] were 7240 nM and 9120 nM, respectively. The microsomal CLint at 1 μM in data set [2] came to 40.5 µL/min/mg; in data set [7], 38.4 µL/min/mg. For the same molecule, the “mPPB (% free)” value in data set [4] came out at 3 % free. Besides, the “hPPB (% free)” value in data set [5] came out at 2 % free. Moreover, the Sol in data set [6] is given as less than 1.1 mg/L.
For `O=C1CCc2c(Oc3ccc4c(c3)CN(C(=O)Nc3ccccc3C(F)(F)F)CC4)ccnc2N1` [Compound 49], the IC50 in data set [1] is 8910 nM; in data set [3] it was 7760 nM. In addition, the values for the microsomal CLint at 1 μM in data set [2] and in data set [7] were 82.2 µL/min/mg and 83.6 µL/min/mg, respectively. Further, the “mPPB (% free)” value in data set [4] was determined as 2.5 % free. Further, the “hPPB (% free)” value in data set [5] worked out at 1.9 % free. This molecule also yielded a Sol in data set [6] of less than 1.2 mg/L.
